In patent publication US20090233930A9, “Novel 2-Amino-Imidazole-4-One Compounds and Their Use in the Manufacture of a Medicament to Be Used in the Treatment of Cognitive Impairment, Alzheimer's Disease, Neurodegeneration and Dementia” (ASTRAZENECA AB, priority 2005, published 2009):
Where a name gives a salt, the structure may show the parent alone.

Target: T1, human β-Secretase (Homo sapiens, UniProt P56817)
T1 construct: The soluble part of the human β-Secretase (AA 1-AA 460) was cloned; made in house
Assay: TR-FRET assay
Assay type: biochemical
Conditions: sBACE truncated form, substrate (Europium)CEVNLDAEFK(Qsy7) 100 nM, pH 4.5
Protocol: The enzyme used in the IGEN Cleavage-, Fluorescent-, TR-FRET- and the BiaCore assay is described as follows:
The soluble part of the human β-Secretase (AA 1-AA 460) was cloned into the ASP2-Fc10-1-IRES-GFP-neoK mammalian expression vector. The gene was fused to the Fc domain of IgG1 (affinity tag) and stably cloned into HEK 293 cells. Purified sBACE-Fc is stored in Tris buffer, pH 9.2 and has a purity of 95%.
Dilute the enzyme (truncated form) to 6 μg/mL (stock 1.3 mg/mL) and the substrate (Europium)CEVNLDAEFK(Qsy7) to 200 nM (stock 60 μM) in reaction buffer (NaAcetate, chaps, triton x-100, EDTA pH4.5). The Biomek FX is used for all liquid handling and the enzyme and substrate solutions are kept on ice until they are placed in Biomek FX. Enzyme (9 μl) is added to the plate then 1 μl of compound in dimethylsulphoxide is added, mixed and pre-incubated for 10 minutes. Substrate (10 μl) is then added, mixed and the reaction proceeds in the dark for 15 minutes at room temperature. The reaction is stopped with the addition of Stop solution (7 μl, NaAcetate pH 9). The fluorescence of the product is measured on a Victor II plate reader with an excitation wavelength of 340 nm and an emission wavelength of 615 nm. The assay is done in a Costar 384 well round bottom, low volume, non-binding surface (Corning #3676). […]

T1 sequence (P56817 22-460): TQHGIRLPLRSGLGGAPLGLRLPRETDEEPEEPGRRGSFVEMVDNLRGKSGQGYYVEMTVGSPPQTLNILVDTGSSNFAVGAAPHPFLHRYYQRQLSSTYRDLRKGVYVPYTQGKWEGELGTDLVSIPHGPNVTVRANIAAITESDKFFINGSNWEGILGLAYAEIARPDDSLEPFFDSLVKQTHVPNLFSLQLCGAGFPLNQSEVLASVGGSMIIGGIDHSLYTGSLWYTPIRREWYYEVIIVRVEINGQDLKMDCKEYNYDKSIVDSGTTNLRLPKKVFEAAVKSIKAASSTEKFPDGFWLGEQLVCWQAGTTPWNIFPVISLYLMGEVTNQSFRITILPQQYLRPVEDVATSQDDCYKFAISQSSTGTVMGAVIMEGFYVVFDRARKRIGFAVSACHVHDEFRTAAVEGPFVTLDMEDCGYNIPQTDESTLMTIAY

| Compound | IC50 |
| --- | --- |
| COc1cccc(-c2cccc(C3(c4cccc(OS(=O)(=O)C(F)(F)F)c4)N=C(N)N(C)C3=O)c2)c1 (centres unmarked) [Example 45, 3-[2-Amino-4-(3′-methoxybiphenyl-3-yl)-1-methyl-5-oxo-4,5-dihydro-1H-imidazol-4-yl]phenyl trifluoromethanesulfonate hydrochloride] | 0.258 µM |
| COc1ccc(OS(=O)(=O)C(F)(F)F)c(-c2cccc(C3(c4ccccc4)N=C(N)N(C)C3=O)c2)c1 (centres unmarked) [Example 26, 3′-(2-Amino-1-methyl-5-oxo-4-phenyl-4,5-dihydro-1H-imidazol-4-yl)-5-methoxybiphenyl-2-yl trifluoromethanesulfonate hydrochloride] | 0.743 µM |
